Reference: ChEMBL document CHEMBL5653615 (J Biol Chem, 2013)

Assays:
[1] = molecular target: Casein kinase I isoform delta (Homo sapiens) (UniProt P48730); test: Inhibition of human CK1d at 500 nM by HotSpot assay relative to control
[2] = molecular target: T1, Ephrin type-B receptor 1 (Homo sapiens) (UniProt P54762); test: Inhibition of human EPHB1 at 500 nM by HotSpot assay relative to control
T1 sequence (whole entry): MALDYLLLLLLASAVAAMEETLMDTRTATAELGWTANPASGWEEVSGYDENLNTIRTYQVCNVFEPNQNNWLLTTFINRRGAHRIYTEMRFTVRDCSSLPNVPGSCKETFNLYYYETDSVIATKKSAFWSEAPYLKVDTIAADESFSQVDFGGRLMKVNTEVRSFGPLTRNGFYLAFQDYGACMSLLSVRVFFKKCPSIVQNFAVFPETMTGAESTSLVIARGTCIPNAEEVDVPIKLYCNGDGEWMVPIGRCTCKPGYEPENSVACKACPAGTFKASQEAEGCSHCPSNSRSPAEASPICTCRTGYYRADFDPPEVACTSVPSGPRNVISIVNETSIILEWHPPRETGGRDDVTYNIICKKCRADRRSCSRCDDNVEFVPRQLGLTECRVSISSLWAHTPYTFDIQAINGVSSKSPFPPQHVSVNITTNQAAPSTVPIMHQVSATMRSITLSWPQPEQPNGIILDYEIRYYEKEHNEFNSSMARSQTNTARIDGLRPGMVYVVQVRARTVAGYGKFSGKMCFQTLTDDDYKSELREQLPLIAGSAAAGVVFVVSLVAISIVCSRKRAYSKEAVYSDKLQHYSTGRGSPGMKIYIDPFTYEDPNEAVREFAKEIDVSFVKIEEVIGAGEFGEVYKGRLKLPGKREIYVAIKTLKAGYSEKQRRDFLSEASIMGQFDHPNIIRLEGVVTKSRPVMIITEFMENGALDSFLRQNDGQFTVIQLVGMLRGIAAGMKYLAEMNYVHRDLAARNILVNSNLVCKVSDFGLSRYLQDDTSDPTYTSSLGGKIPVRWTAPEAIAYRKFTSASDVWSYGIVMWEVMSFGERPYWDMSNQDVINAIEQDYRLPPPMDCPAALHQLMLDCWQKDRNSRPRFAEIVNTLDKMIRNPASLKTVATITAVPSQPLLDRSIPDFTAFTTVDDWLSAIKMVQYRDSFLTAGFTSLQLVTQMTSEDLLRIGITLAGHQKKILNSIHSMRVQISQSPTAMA

[3] = molecular target: T2, Interleukin-1 receptor-associated kinase 4 (Homo sapiens) (UniProt Q9NWZ3); test: Inhibition of human IRAK4 at 500 nM by HotSpot assay relative to control
T2 sequence (whole entry): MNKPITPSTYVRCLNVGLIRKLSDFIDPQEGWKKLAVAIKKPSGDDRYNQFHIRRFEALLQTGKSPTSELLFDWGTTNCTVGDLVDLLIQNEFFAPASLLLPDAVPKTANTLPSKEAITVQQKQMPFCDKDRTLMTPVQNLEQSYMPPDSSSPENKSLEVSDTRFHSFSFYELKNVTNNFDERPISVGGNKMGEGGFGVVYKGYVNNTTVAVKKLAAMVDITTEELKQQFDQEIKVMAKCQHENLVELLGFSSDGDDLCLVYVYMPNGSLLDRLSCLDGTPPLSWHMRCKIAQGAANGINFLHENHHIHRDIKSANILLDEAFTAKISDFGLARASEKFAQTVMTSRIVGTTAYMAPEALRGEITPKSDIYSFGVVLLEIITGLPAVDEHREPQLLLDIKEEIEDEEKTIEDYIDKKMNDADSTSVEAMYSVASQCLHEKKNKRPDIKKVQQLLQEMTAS

[4] = molecular target: Tyrosine-protein kinase JAK2 (Homo sapiens) (UniProt O60674); test: Inhibition of human JAK2 at 500 nM by HotSpot assay relative to control
[5] = molecular target: T3, Serine/threonine-protein kinase 4 (Homo sapiens) (UniProt Q13043); test: Inhibition of human STK4 at 500 nM by HotSpot assay relative to control
T3 sequence (whole entry): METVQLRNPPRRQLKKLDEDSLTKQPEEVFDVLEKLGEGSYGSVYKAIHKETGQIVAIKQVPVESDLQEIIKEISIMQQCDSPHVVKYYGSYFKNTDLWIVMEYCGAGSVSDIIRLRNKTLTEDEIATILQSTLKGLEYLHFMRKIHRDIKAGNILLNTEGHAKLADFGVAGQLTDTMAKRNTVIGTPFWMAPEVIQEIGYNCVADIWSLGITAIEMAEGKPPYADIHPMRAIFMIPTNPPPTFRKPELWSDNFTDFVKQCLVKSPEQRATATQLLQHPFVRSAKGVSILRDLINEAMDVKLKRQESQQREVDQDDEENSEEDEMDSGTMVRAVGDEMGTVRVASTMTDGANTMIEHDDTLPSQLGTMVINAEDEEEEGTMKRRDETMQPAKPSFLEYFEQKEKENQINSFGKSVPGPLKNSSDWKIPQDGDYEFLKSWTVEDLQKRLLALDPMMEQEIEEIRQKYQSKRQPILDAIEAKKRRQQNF

[6] = molecular target: T4, Serine/threonine-protein kinase Nek11 (Homo sapiens) (UniProt Q8NG66); test: Inhibition of human NEK11 at 500 nM by HotSpot assay relative to control
T4 sequence (whole entry): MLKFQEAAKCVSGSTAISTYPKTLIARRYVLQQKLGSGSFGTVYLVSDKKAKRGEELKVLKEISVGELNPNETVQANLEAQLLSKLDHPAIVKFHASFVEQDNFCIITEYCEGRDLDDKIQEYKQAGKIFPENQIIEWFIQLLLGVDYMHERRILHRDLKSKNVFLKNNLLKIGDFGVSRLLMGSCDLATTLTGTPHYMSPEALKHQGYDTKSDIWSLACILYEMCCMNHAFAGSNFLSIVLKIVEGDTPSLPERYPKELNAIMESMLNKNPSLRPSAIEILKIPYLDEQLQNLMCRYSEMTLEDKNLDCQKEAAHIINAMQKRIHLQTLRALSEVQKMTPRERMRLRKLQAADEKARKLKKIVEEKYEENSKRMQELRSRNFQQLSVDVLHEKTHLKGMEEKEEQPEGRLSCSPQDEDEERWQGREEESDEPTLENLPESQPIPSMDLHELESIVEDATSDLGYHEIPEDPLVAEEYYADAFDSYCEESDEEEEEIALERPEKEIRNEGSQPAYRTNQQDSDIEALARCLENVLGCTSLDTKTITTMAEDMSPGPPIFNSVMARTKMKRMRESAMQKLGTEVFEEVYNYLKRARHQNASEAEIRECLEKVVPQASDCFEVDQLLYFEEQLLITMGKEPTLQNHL

[7] = molecular target: Serine/threonine-protein kinase Nek6 (Homo sapiens) (UniProt Q9HC98); test: Inhibition of human NEK6 at 500 nM by HotSpot assay relative to control
[8] = molecular target: Proto-oncogene tyrosine-protein kinase ROS (Homo sapiens) (UniProt P08922); test: Inhibition of human ROS1 at 500 nM by HotSpot assay relative to control
Sequence of Proto-oncogene tyrosine-protein kinase ROS (Homo sapiens) (P08922 whole entry): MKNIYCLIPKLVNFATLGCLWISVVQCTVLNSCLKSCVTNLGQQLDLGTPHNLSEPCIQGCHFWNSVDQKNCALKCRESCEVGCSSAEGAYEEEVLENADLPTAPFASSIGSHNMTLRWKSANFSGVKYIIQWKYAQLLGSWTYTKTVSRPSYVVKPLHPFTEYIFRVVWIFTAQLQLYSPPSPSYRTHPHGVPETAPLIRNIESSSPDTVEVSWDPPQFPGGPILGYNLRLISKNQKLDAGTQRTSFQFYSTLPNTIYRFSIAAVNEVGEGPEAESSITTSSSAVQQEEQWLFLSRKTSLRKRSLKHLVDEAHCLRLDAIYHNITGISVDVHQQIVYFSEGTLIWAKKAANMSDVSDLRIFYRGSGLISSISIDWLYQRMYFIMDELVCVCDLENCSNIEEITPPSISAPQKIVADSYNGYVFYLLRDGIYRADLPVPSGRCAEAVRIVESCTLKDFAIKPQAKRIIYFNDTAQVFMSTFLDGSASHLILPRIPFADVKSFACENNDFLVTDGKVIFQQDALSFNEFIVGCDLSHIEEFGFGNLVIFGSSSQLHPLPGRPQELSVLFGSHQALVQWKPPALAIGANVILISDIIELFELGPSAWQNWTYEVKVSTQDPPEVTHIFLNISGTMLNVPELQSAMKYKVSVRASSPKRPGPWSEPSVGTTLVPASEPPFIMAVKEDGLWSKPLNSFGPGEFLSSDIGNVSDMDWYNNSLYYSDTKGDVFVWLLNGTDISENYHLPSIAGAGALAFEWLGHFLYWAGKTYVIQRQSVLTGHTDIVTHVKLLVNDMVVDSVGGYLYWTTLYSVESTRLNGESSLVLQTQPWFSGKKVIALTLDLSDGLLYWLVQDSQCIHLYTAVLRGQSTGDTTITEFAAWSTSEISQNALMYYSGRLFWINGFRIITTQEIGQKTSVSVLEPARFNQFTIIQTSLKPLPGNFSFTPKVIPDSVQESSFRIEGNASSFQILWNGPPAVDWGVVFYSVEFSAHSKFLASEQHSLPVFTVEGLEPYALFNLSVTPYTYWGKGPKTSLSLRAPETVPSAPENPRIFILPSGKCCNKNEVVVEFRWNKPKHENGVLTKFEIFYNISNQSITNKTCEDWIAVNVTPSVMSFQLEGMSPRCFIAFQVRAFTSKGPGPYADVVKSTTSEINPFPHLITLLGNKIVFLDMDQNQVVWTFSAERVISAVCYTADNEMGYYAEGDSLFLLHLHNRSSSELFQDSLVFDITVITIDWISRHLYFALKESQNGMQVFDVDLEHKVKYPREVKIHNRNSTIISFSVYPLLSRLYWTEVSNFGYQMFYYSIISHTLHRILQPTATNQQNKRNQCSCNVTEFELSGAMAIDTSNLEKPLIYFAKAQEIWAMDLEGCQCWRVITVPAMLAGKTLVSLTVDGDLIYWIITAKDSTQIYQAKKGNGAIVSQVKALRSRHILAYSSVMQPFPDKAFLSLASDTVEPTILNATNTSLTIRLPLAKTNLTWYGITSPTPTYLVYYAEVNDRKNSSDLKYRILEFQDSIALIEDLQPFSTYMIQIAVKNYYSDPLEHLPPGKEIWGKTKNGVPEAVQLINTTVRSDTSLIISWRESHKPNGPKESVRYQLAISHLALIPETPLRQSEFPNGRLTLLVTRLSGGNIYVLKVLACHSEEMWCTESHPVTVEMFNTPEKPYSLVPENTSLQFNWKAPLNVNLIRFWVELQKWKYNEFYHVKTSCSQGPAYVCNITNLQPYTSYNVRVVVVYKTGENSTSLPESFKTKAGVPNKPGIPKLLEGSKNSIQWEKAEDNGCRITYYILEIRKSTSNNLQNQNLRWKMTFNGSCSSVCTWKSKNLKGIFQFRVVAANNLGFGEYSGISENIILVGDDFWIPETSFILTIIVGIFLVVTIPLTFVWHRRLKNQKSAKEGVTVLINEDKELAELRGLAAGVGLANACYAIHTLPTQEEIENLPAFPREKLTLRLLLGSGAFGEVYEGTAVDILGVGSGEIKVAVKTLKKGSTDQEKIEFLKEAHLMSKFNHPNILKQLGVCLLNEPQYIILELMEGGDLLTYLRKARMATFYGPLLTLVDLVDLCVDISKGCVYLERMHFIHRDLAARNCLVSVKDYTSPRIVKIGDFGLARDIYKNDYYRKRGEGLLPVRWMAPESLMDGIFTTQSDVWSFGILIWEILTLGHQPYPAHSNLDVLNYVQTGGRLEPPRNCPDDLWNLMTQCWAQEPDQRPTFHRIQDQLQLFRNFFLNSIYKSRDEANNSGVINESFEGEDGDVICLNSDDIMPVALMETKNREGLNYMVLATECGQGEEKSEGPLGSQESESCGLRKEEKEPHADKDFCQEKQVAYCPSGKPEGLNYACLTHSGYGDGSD

Sequence of Casein kinase I isoform delta (Homo sapiens) (P48730 whole entry, looked up, canonical isoform): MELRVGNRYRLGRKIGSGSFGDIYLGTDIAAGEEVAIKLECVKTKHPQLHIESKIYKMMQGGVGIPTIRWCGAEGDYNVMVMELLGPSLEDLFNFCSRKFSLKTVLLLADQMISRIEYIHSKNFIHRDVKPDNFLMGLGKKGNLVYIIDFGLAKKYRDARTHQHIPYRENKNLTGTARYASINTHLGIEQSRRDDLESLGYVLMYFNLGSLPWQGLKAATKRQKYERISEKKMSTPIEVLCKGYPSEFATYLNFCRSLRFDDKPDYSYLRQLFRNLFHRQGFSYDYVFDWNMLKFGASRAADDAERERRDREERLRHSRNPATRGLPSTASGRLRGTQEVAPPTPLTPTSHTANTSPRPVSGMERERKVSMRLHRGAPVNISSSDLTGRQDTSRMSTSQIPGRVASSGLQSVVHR
Sequence of Serine/threonine-protein kinase Nek6 (Homo sapiens) (Q9HC98 whole entry): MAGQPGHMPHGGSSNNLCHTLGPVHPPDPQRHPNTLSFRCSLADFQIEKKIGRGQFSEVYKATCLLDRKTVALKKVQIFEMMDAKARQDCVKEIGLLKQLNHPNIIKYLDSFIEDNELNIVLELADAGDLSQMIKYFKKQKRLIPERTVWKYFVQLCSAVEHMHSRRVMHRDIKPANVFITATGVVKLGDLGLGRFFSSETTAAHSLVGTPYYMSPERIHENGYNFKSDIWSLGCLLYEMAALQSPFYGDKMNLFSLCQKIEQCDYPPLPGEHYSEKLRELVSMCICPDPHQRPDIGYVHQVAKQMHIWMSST
Sequence of Tyrosine-protein kinase JAK2 (Homo sapiens) (O60674 whole entry): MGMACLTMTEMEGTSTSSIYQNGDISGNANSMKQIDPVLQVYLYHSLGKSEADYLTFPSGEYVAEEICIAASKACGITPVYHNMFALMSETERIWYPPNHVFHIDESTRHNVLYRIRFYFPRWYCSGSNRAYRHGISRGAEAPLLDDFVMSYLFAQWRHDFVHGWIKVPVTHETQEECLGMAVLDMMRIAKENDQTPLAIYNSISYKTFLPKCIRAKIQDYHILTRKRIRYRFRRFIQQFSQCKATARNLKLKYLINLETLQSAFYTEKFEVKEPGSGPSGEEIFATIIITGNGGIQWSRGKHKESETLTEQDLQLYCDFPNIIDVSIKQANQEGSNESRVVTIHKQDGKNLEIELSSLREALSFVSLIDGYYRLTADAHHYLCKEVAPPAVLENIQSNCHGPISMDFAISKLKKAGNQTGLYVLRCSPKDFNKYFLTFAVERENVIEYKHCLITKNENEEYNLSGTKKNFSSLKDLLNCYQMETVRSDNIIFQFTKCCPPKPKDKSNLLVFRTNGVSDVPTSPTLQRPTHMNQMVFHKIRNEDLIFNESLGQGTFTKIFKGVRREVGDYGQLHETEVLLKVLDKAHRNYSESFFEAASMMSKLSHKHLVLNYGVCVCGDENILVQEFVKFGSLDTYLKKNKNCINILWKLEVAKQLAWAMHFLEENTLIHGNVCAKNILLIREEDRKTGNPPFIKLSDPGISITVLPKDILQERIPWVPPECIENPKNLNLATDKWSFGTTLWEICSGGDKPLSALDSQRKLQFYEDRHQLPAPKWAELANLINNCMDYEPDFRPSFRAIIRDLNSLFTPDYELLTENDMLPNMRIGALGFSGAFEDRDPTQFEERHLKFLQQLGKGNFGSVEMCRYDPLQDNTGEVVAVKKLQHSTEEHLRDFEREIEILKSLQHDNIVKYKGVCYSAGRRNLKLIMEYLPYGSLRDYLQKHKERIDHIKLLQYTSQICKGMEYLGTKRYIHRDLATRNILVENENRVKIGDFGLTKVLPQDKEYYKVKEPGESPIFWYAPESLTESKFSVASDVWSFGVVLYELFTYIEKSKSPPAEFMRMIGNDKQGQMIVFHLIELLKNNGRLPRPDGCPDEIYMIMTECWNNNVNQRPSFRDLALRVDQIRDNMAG

**Q.** What does the source list for `Oc1n[nH]c2nnc(-c3c(-c4ccccc4)nn4ccccc34)cc12`?
**A.** inhibition [1]: 4.93%; inhibition [2]: 2.52%; inhibition [3]: -3.11%; inhibition [4]: 2.36%; inhibition [5]: -0.48%; inhibition [6]: -4.37%; inhibition [7]: 3.5%; inhibition [8]: 2.73%

**Q.** How did the inhibition [1] turn out when `Nc1n[nH]c2nnc(-c3c(-c4ccccc4)nn4ccccc34)cc12` was run?
**A.** Its inhibition is 36.8%.

**Q.** What about the inhibition [2] of the same compound?
**A.** The inhibition was 1.38%.

**Q.** What about the inhibition [3] of the same compound?
**A.** Its inhibition is -5.42%.

**Q.** And the inhibition [4]?
**A.** Its inhibition is 2.93%.

**Q.** What about the inhibition [5] of the same compound?
**A.** The inhibition was 0.86%.

**Q.** What about the inhibition [6] of the same compound?
**A.** The inhibition was 4.86%.

**Q.** And the inhibition [7]?
**A.** Its inhibition is 4.45%.

**Q.** What about the inhibition [8] of the same compound?
**A.** Its inhibition is 19.8%.
